Active and inactive are the calls of the source. The calls are words filed in the database; no cut-off is given here.
What was measured:
[1] = system: HCT-116; assay: Antiproliferative activity against human HCT-116 cells assessed as inhibition of cell viability incubated for 72 hrs in presence of olaparib by CCK8 assay; type: functional, cell-based; conditions: HCT-116, 72 h
[2] = system: A549; assay: Antiproliferative activity against human A549 cells assessed as combination index incubated for 72 hrs in presence of olaparib by CCK8 assay; type: functional
[3] = system: A549; assay: Antiproliferative activity against human A549 cells assessed as inhibition of cell viability incubated for 72 hrs in presence of olaparib by CCK8 assay; type: functional, cell-based; conditions: A549, 72 h
[4] = system: NCM460; assay: Antiproliferative activity against human NCM460 cells assessed as combination index incubated for 72 hrs in presence of olaparib by CCK8 assay; type: functional
[5] = system: MCF7; assay: Antiproliferative activity against human MCF7 cells assessed as combination index incubated for 72 hrs in presence of Niraparib by CCK8 assay; type: functional
[6] = system: HCT-116; assay: Induction of DNA damage in human HCT-116 cells assessed as increase in gammaH2AX protein level at 1 uM incubated for 48 hrs in presence of Olaparib by Western blotting analysis; type: functional, cell-based
[7] = system: HCT-116; assay: Antitumor activity against human HCT-116 cells xenografted in BALB/c nude mouse assessed as tumor growth inhibition at 20 mg/kg, ip administered for 14 days in presence of Olaparib relative to control; type: functional; conditions: HCT-116, 336 h, time 14 day, read-out: TGI
[8] = system: A549; assay: Antiproliferative activity against human A549 cells assessed as inhibition of cell viability incubated for 72 hrs by CCK8 assay; type: functional, cell-based; conditions: A549, 72 h
[9] = system: NCM460; assay: Antiproliferative activity against human NCM460 cells assessed as inhibition of cell viability incubated for 72 hrs in presence of olaparib by CCK8 assay; type: functional, cell-based; conditions: NCM460, 72 h
[10] = system: HCT-116; assay: Antiproliferative activity against human HCT-116 cells assessed as combination index incubated for 72 hrs in presence of olaparib by CCK8 assay; type: functional
[11] = system: HCT-116; assay: Antiproliferative activity against human HCT-116 cells assessed as inhibition of cell viability incubated for 72 hrs in presence of Niraparib by CCK8 assay; type: functional, cell-based; conditions: HCT-116, 72 h
[12] = system: MV4-11; assay: Antiproliferative activity against human MV4-11 cells assessed as combination index incubated for 72 hrs in presence of olaparib by CCK8 assay; type: functional
[13] = system: MV4-11; assay: Antiproliferative activity against human MV4-11 cells assessed as combination index incubated for 72 hrs in presence of Niraparib by CCK8 assay; type: functional
[14] = system: MCF7; assay: Antiproliferative activity against human MCF7 cells assessed as inhibition of cell viability incubated for 72 hrs by CCK8 assay; type: functional, cell-based; conditions: MCF7, 72 h
[15] = system: NCM460; assay: Antiproliferative activity against human NCM460 cells assessed as combination index incubated for 72 hrs in presence of Niraparib by CCK8 assay; type: functional
[16] = system: MCF7; assay: Antiproliferative activity against human MCF7 cells assessed as combination index incubated for 72 hrs in presence of olaparib by CCK8 assay; type: functional
[17] = system: A549; assay: Antiproliferative activity against human A549 cells assessed as inhibition of cell viability incubated for 72 hrs in presence of Niraparib by CCK8 assay; type: functional, cell-based; conditions: A549, 72 h
[18] = system: MCF7; assay: Antiproliferative activity against human MCF7 cells assessed as inhibition of cell viability incubated for 72 hrs in presence of Niraparib by CCK8 assay; type: functional, cell-based; conditions: MCF7, 72 h
[19] = system: A549; assay: Antiproliferative activity against human A549 cells assessed as combination index incubated for 72 hrs in presence of Niraparib by CCK8 assay; type: functional
[20] = system: HCT-116; assay: Antiproliferative activity against human HCT-116 cells assessed as combination index incubated for 72 hrs in presence of Niraparib by CCK8 assay; type: functional
[21] = system: MV4-11; assay: Antiproliferative activity against human MV4-11 cells assessed as inhibition of cell viability incubated for 72 hrs in presence of Niraparib by CCK8 assay; type: functional, cell-based; conditions: MV4-11, 72 h
[22] = system: MV4-11; assay: Antiproliferative activity against human MV4-11 cells assessed as inhibition of cell viability incubated for 72 hrs by CCK8 assay; type: functional, cell-based; conditions: MV4-11, 72 h
[23] = system: MV4-11; assay: Antiproliferative activity against human MV4-11 cells assessed as inhibition of cell viability incubated for 72 hrs in presence of olaparib by CCK8 assay; type: functional, cell-based; conditions: MV4-11, 72 h
[24] = system: NCM460; assay: Antiproliferative activity against human NCM460 cells assessed as inhibition of cell viability incubated for 72 hrs by CCK8 assay; type: functional, cell-based; conditions: NCM460, 72 h
[25] = system: HCT-116; assay: Antiproliferative activity against human HCT-116 cells assessed as inhibition of cell viability incubated for 72 hrs by CCK8 assay; type: functional, cell-based; conditions: HCT-116, 72 h
[26] = system: NCM460; assay: Antiproliferative activity against human NCM460 cells assessed as inhibition of cell viability incubated for 72 hrs in presence of Niraparib by CCK8 assay; type: functional, cell-based; conditions: NCM460, 72 h
[27] = system: MCF7; assay: Antiproliferative activity against human MCF7 cells assessed as inhibition of cell viability incubated for 72 hrs in presence of olaparib by CCK8 assay; type: functional, cell-based; conditions: MCF7, 72 h
[28] = system: HCT-116; assay: Antitumor activity against human HCT-116 cells xenografted in BALB/c nude mouse assessed as tumor growth inhibition at 20 mg/kg, ip administered for 14 days relative to control; type: functional; conditions: Mus musculus, HCT-116, 336 h, time 14 day, read-out: TGI

SMILES: O=C1Nc2ccccc2/C1=C1/Nc2ccccc2/C1=N\O
- IC50 [1]: 1.37 µM
- CI [2]: 0.94
- IC50 [3]: 6.06 µM
- CI [4]: 0.92
- CI [5]: 0.47
- Activity [6]: Active
- inhibition in vivo at 20 mg/kg [7]: 64.6%
- IC50 [8]: 8.21 µM
- IC50 [9]: 20.2 µM
- CI [10]: 0.47
- IC50 [11]: 0.83 µM
- CI [12]: 0.57
- CI [13]: 0.72
- IC50 [14]: 4.1 µM
- CI [15]: 1
- CI [16]: 0.59
- IC50 [17]: 4.17 µM
- IC50 [18]: 1.41 µM
- CI [19]: 0.84
- CI [20]: 0.67
- IC50 [21]: 1.69 µM
- IC50 [22]: 6.01 µM
- IC50 [23]: 2.36 µM
- IC50 [24]: 13.1 µM
- IC50 [25]: 3.88 µM
- IC50 [26]: 21.1 µM
- IC50 [27]: 2.33 µM
- inhibition in vivo at 20 mg/kg [28]: 47.4%
